In article PMC5386260, “Acute development of cortical porosity and endosteal naïve bone formation from the daily but not weekly short-term administration of PTH in rabbit” (PLoS ONE, 2017):

Key:
Conditions in all cases: rabbit, in vivo
renal function = test system: renal function
Method: The serum samples collected for measurement of bone metabolic markers were also subjected to biochemical analysis to examine renal function. Serum blood urea nitrogen (BUN) and creatinine were measured using an autoanalyzer (Hitachi 7180 chemistry analyzer; Hitachi Ltd, Tokyo, Japan). Blood samples in all groups were collected at 0, 6, 24 hours after the administration of TPTD on days 1 and 22. Blood samples in the C, […] and […] groups were also collected at days 3 and 7 after on the 1st and 22nd days of administration. The samples were centrifuged at 1700 x g, at 4°C for 15 minutes in tubes with clot activator and serum was collected in order to measure the concentration of osteocalcin.

[1] = test system: kidneys, thyroid and parathyroid; test: Histopathological examination of kidney, thyroid and parathyroid
Method: Calcein (Dojindo Laboratories, Kumamoto, Japan) was subcutaneously injected into each animal at a dose of 10 mg/kg body weight on days 13 and 5 before sacrifice for bone double labeling (1-7-1-3). After the dosing period, the animals were euthanized by exsanguination under anesthesia using thiopental. The left and right tibiae were collected for a micro-CT analysis and histomorphometry, respectively. The kidneys, thyroid and parathyroid of all animals were collected and fixed in 10% neutral buffered formalin for a histopathological examination. The left tibiae were packed in plastic bags and stored at -30°C until use in a micro-CT analysis and mechanical testing. The right tibiae were fixed in 70% ethanol, stained with Villanueva bone stain, dehydrated in a graded ethanol series, defatted in acetone, and embedded in polymethyl methacrylate (Wako Pure Chemical Industries, Osaka, Japan). Thin ground sections of 10–20 μm in thickness were prepared using a micro cutting machine and a grinding machine (EXAKT, Germany) from a cross-section at a plane that was 3 mm proximal from the tibiofibular junction, and were subjected to bone histomorphometry. Right iliac crest were also fixed in 70% ethanol and processed for Vilanueva bone stain, dehydration, defattation, polymethyl methacrylate embedding and sectioning to 5 μm for three-dimensional second harmonic generation (3D-SHG) imaging. […]

endosteal bone collagen = test system: endosteal bone collagen
Method: Calcein (Dojindo Laboratories, Kumamoto, Japan) was subcutaneously injected into each animal at a dose of 10 mg/kg body weight on days 13 and 5 before sacrifice for bone double labeling (1-7-1-3). After the dosing period, the animals were euthanized by exsanguination under anesthesia using thiopental. The left and right tibiae were collected for a micro-CT analysis and histomorphometry, respectively. The kidneys, thyroid and parathyroid of all animals were collected and fixed in 10% neutral buffered formalin for a histopathological examination. The left tibiae were packed in plastic bags and stored at -30°C until use in a micro-CT analysis and mechanical testing. […]
An upright multi-photon excited microscopy system (A1RMP, Nikon Corporation, Japan) situated at the Imaging core facility of The Institute of Medical Science, The University of Tokyo was employed to acquire bone collagen-derived SHG signals and two-photon excited auto-fluorescence signals from Calcein-labeled undecalcified bone sections. […] The detection wavelengths were 420–425 nm and 500–550 nm for the acquisition of collagen-derived SHG signals and auto-fluorescence signals from soft tissue, respectively. […]

- level of serum blood urea nitrogen (BUN), effect of TPTD (renal function): not significantly affected
- level of serum creatinine, effect of TPTD (renal function): not significantly affected
- endosteal bone collagen pattern (3D-SHG) (endosteal bone collagen): amorphously short fibers
SMILES: CC[C@H](C)[C@H](NC(=O)[C@H](CCC(=O)O)NC(=O)[C@H](CO)NC(=O)[C@@H](NC(=O)[C@@H](N)CO)C(C)C)C(=O)N[C@@H](CCC(N)=O)C(=O)N[C@@H](CC(C)C)C(=O)N[C@@H](CCSC)C(=O)N[C@@H](Cc1cnc[nH]1)C(=O)N[C@@H](CC(N)=O)C(=O)N[C@@H](CC(C)C)C(=O)NCC(=O)N[C@@H](CCCCN)C(=O)N[C@@H](Cc1cnc[nH]1)C(=O)N[C@@H](CC(C)C)C(=O)N[C@@H](CC(N)=O)C(=O)N[C@@H](CO)C(=O)N[C@@H](CCSC)C(=O)N[C@@H](CCC(=O)O)C(=O)N[C@@H](CCCN=C(N)N)C(=O)N[C@H](C(=O)N[C@@H](CCC(=O)O)C(=O)N[C@@H](Cc1c[nH]c2ccccc12)C(=O)N[C@@H](CC(C)C)C(=O)N[C@@H](CCCN=C(N)N)C(=O)N[C@@H](CCCCN)C(=O)N[C@@H](CCCCN)C(=O)N[C@@H](CC(C)C)C(=O)N[C@@H](CCC(N)=O)C(=O)N[C@@H](CC(=O)O)C(=O)N[C@H](C(=O)N[C@@H](Cc1cnc[nH]1)C(=O)N[C@@H](CC(N)=O)C(=O)N[C@@H](Cc1ccccc1)C(=O)O)C(C)C)C(C)C [TPTD, Teriparatide]
- general histopathological examination, toxic effects [1]: No obvious toxic effects were observed in any specimens
